Measurements taken from ChEMBL document CHEMBL1201862, “PubChem BioAssay data set” (2004).
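Cells were grown in 96-well plates and exposed to each compound for 48 hours at five concentrations; endpoints were interpolated linearly between bracketing concentrations, or set to the highest concentration if not reached. Abbreviation: GI50, concentration required for 50% inhibition of growth.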 Activity calls are given as the source filed them. No stated cut-off is given here; in the data, active = GI50 up to about 1.1 µM and inactive = higher.

Tests used:
Experiment in all cases: NCI-60 cell line screen, 48 h
[1] = system: A498
[2] = system: COLO 205
[3] = system: HCC 2998
[4] = system: HCT-116
[5] = system: HCT-15
[6] = system: HT-29
[7] = system: M14
[8] = system: MCF7
[9] = system: NCI-H23
[10] = system: NCI/ADR-RES
[11] = system: OVCAR-4
[12] = system: OVCAR-5
[13] = system: OVCAR-8
[14] = system: SF-268
[15] = system: SF-539
[16] = system: SK-MEL-2
[17] = system: SK-OV-3
[18] = system: SN12C
[19] = system: SNB-19
[20] = system: SNB-75

Q: With `COc1ccc(/N=C(\C)c2ccncc2)cc1` as the compound, how does the GI50 [1] read?
A: 40.9 µM (inactive)

Q: What about the GI50 [2] of the same compound?
A: > 100 µM (inactive)

Q: And the GI50 [3]?
A: > 100 µM (inactive)

Q: And the GI50 [4]?
A: > 100 µM (inactive)

Q: And the GI50 [5]?
A: 32.1 µM

Q: What about the GI50 [6] of the same compound?
A: > 100 µM (inactive)

Q: And the GI50 [7]?
A: > 100 µM (inactive)

Q: What about the GI50 [8] of the same compound?
A: 66.7 µM (inactive)

Q: What about the GI50 [9] of the same compound?
A: 89.3 µM (inactive)

Q: And the GI50 [10]?
A: > 100 µM (inactive)

Q: What about the GI50 [11] of the same compound?
A: > 100 µM (inactive)

Q: And the GI50 [12]?
A: 72.8 µM (inactive)

Q: What about the GI50 [13] of the same compound?
A: > 100 µM (inactive)

Q: What about the GI50 [14] of the same compound?
A: 50.6 µM (inactive)

Q: What about the GI50 [15] of the same compound?
A: 21 µM (inactive)

Q: And the GI50 [16]?
A: > 100 µM (inactive)

Q: And the GI50 [17]?
A: > 100 µM (inactive)

Q: What about the GI50 [18] of the same compound?
A: > 100 µM (inactive)

Q: What about the GI50 [19] of the same compound?
A: > 100 µM (inactive)

Q: What about the GI50 [20] of the same compound?
A: > 100 µM (inactive)

Q: `Cc1csc(/N=C(/NCCN2CCOCC2)Nc2nc(C)cs2)n1` was tested. Which GI50 [1] did it give?
A: > 57.9 µM (inactive)

Q: What about the GI50 [2] of the same compound?
A: > 100 µM (inactive)

Q: What about the GI50 [3] of the same compound?
A: > 100 µM (inactive)

Q: And the GI50 [4]?
A: > 70.1 µM (inactive)

Q: And the GI50 [5]?
A: > 100 µM

Q: And the GI50 [6]?
A: > 100 µM (inactive)

Q: What about the GI50 [8] of the same compound?
A: > 84.5 µM (inactive)

Q: What about the GI50 [9] of the same compound?
A: > 100 µM (inactive)

Q: What about the GI50 [10] of the same compound?
A: > 100 µM (inactive)

Q: And the GI50 [11]?
A: > 100 µM (inactive)

Q: What about the GI50 [12] of the same compound?
A: > 100 µM (inactive)

Q: What about the GI50 [13] of the same compound?
A: > 100 µM (inactive)

Q: What about the GI50 [14] of the same compound?
A: > 100 µM (inactive)

Q: And the GI50 [15]?
A: > 100 µM (inactive)

Q: What about the GI50 [16] of the same compound?
A: > 100 µM (inactive)

Q: And the GI50 [17]?
A: > 100 µM (inactive)

Q: And the GI50 [18]?
A: > 100 µM (inactive)

Q: What about the GI50 [19] of the same compound?
A: > 100 µM (inactive)

Q: What about the GI50 [20] of the same compound?
A: > 63.2 µM (inactive)

Q: For `O=C(O)CN(CC(=O)O)C(C(=O)O)c1ccccc1` (centres undefined), which GI50 [1] is on record?
A: > 100 µM (inactive)

Q: What about the GI50 [2] of the same compound?
A: > 100 µM (inactive)

Q: And the GI50 [3]?
A: > 100 µM (inactive)

Q: And the GI50 [4]?
A: > 100 µM (inactive)

Q: What about the GI50 [5] of the same compound?
A: > 100 µM

Q: And the GI50 [6]?
A: > 100 µM (inactive)

Q: What about the GI50 [7] of the same compound?
A: > 100 µM (inactive)

Q: And the GI50 [8]?
A: > 100 µM (inactive)

Q: And the GI50 [9]?
A: > 100 µM (inactive)

Q: What about the GI50 [10] of the same compound?
A: > 100 µM (inactive)

Q: What about the GI50 [11] of the same compound?
A: > 100 µM (inactive)

Q: And the GI50 [12]?
A: > 100 µM (inactive)

Q: What about the GI50 [13] of the same compound?
A: > 100 µM (inactive)

Q: What about the GI50 [14] of the same compound?
A: > 100 µM (inactive)

Q: What about the GI50 [15] of the same compound?
A: > 100 µM (inactive)

Q: What about the GI50 [16] of the same compound?
A: > 100 µM (inactive)

Q: What about the GI50 [17] of the same compound?
A: > 100 µM (inactive)

Q: And the GI50 [18]?
A: > 100 µM (inactive)

Q: What about the GI50 [19] of the same compound?
A: > 100 µM (inactive)

Q: And the GI50 [20]?
A: > 100 µM (inactive)
